Laboratory results as given in ChEMBL document CHEMBL1141126, “Improving the antiviral efficacy and selectivity of HIV-1 reverse transcriptase inhibitor TSAO-T by the introduction of functional groups at the N-3 position” (J Med Chem, 2005).

What was measured:
[1] = system: Human immunodeficiency virus 1; test: Effective concentration required to inhibit HIV-1 induced cytopathicity in human MT-4 cell line; assay type: functional, organism-based; settings: Human immunodeficiency virus 1, MT4
[2] = system: Human immunodeficiency virus 1; test: Effective concentration required to inhibit HIV-1/138K induced cytopathicity in human CEM cell line; assay type: functional, organism-based; settings: Human immunodeficiency virus 1, CCRF-CEM
CCRF-CEM [3] = test: Ratio of cytostatic concentration to effective concentration in human CEM cell line; assay type: functional
CCRF-CEM [4] = test: Cytostatic concentration required to inhibit cell proliferation in human CEM cell line; assay type: functional
[5] = target: Human immunodeficiency virus type 1 reverse transcriptase (Human immunodeficiency virus 1, UniProt Q72547); test: Inhibitory concentration required to inhibit recombinant HIV-1 reverse transcriptase
[6] = system: Human immunodeficiency virus 1; test: Effective concentration required to inhibit HIV-1 induced cytopathicity in human CEM cell line; assay type: functional, organism-based; settings: Human immunodeficiency virus 1, CCRF-CEM
[7] = system: Human immunodeficiency virus 2; test: Effective concentration required to inhibit HIV-2 induced cytopathicity in human CEM cell line; assay type: functional, organism-based; settings: Human immunodeficiency virus 2, CCRF-CEM
[8] = system: Human immunodeficiency virus 2; test: Effective concentration required to inhibit HIV-2 induced cytopathicity in human MT-4 cell line; assay type: functional, organism-based; settings: Human immunodeficiency virus 2, MT4

Cc1cn([C@@H]2O[C@H](CO[Si](C)(C)C(C)(C)C)[C@@]3(OS(=O)(=O)C=C3N)[C@H]2O[Si](C)(C)C(C)(C)C)c(=O)n(CC(=O)N(C)C)c1=O
EC50 [1]: 0.04 µM
EC50 [2]: 4.5 µM
SI (CCRF-CEM [3]): 12250
CC50 (CCRF-CEM [4]): 245 µM
IC50 [5]: 3.5 µM
EC50 [6]: 0.02 µM
EC50 [7]: > 250 µM
EC50 [8]: > 250 µM

COC(=O)CCCCn1c(=O)c(C)cn([C@@H]2O[C@H](CO[Si](C)(C)C(C)(C)C)[C@@]3(OS(=O)(=O)C=C3N)[C@H]2O[Si](C)(C)C(C)(C)C)c1=O
EC50 [1]: 0.2 µM
SI (CCRF-CEM [3]): 1563
CC50 (CCRF-CEM [4]): 125 µM
IC50 [5]: 327 µM
EC50 [6]: 0.08 µM
EC50 [7]: ≥ 142 µM
EC50 [8]: > 142 µM

CCOC(=O)CCCCCn1c(=O)c(C)cn([C@@H]2O[C@H](CO[Si](C)(C)C(C)(C)C)[C@@]3(OS(=O)(=O)C=C3N)[C@H]2O[Si](C)(C)C(C)(C)C)c1=O
EC50 [1]: 0.27 µM
EC50 [2]: > 10 µM
SI (CCRF-CEM [3]): 312
CC50 (CCRF-CEM [4]): 40.6 µM
IC50 [5]: > 500 µM
EC50 [6]: 0.13 µM
EC50 [7]: > 50 µM
EC50 [8]: > 50 µM

CNC(=O)CCCCCn1c(=O)c(C)cn([C@@H]2O[C@H](CO[Si](C)(C)C(C)(C)C)[C@@]3(OS(=O)(=O)C=C3N)[C@H]2O[Si](C)(C)C(C)(C)C)c1=O
EC50 [1]: 0.03 µM
EC50 [2]: 10 µM
SI (CCRF-CEM [3]): 442
CC50 (CCRF-CEM [4]): 22.1 µM
IC50 [5]: 2.4 µM
EC50 [6]: 0.05 µM
EC50 [7]: > 125 µM
EC50 [8]: > 125 µM

COC(=O)/C=C/Cn1c(=O)c(C)cn([C@@H]2O[C@H](CO[Si](C)(C)C(C)(C)C)[C@@]3(OS(=O)(=O)C=C3N)[C@H]2O[Si](C)(C)C(C)(C)C)c1=O
EC50 [1]: 0.13 µM
EC50 [2]: 5.5 µM
SI (CCRF-CEM [3]): 2367
CC50 (CCRF-CEM [4]): 142 µM
IC50 [5]: 30 µM
EC50 [6]: 0.06 µM
EC50 [7]: > 10 µM
EC50 [8]: > 250 µM

Cc1cn([C@@H]2O[C@H](CO[Si](C)(C)C(C)(C)C)[C@@]3(OS(=O)(=O)C=C3N)[C@H]2O[Si](C)(C)C(C)(C)C)c(=O)n(C/C=C/CO)c1=O
EC50 [1]: 0.07 µM
EC50 [2]: 4.5 µM
SI (CCRF-CEM [3]): 220
CC50 (CCRF-CEM [4]): 4.41 µM
IC50 [5]: 4.5 µM
EC50 [6]: 0.02 µM
EC50 [7]: > 2 µM
EC50 [8]: > 2 µM

Cc1cn([C@@H]2O[C@H](CO[Si](C)(C)C(C)(C)C)[C@@]3(OS(=O)(=O)C=C3N)[C@H]2O[Si](C)(C)C(C)(C)C)c(=O)n(CCCCO)c1=O
EC50 [1]: 0.17 µM
EC50 [2]: ≥ 10 µM
SI (CCRF-CEM [3]): 227
CC50 (CCRF-CEM [4]): 20.5 µM
IC50 [5]: 13 µM
EC50 [6]: 0.09 µM
EC50 [7]: > 10 µM
EC50 [8]: > 10 µM

Cc1cn([C@@H]2O[C@H](CO[Si](C)(C)C(C)(C)C)[C@@]3(OS(=O)(=O)C=C3N)[C@H]2O[Si](C)(C)C(C)(C)C)c(=O)n(CCCN2C(=O)c3ccccc3C2=O)c1=O
EC50 [1]: 0.29 µM
EC50 [2]: > 250 µM
SI (CCRF-CEM [3]): >2272
CC50 (CCRF-CEM [4]): > 250 µM
IC50 [5]: > 500 µM
EC50 [6]: 0.11 µM
EC50 [7]: > 250 µM
EC50 [8]: > 250 µM

Cc1cn([C@@H]2O[C@H](CO[Si](C)(C)C(C)(C)C)[C@@]3(OS(=O)(=O)C=C3N)[C@H]2O[Si](C)(C)C(C)(C)C)c(=O)n(CCCNC(=O)OCc2ccccc2)c1=O
EC50 [1]: 0.17 µM
EC50 [2]: > 50 µM
SI (CCRF-CEM [3]): 1526
CC50 (CCRF-CEM [4]): 229 µM
IC50 [5]: > 500 µM
EC50 [6]: 0.15 µM
EC50 [7]: > 50 µM
EC50 [8]: > 50 µM

Cc1cn([C@@H]2O[C@H](CO[Si](C)(C)C(C)(C)C)[C@@]3(OS(=O)(=O)C=C3N)[C@H]2O[Si](C)(C)C(C)(C)C)c(=O)n(CCCN(CC(=O)O)CC(=O)O)c1=O
EC50 [2]: > 50 µM
SI (CCRF-CEM [3]): >63
CC50 (CCRF-CEM [4]): > 250 µM
IC50 [5]: > 500 µM
EC50 [6]: 4 µM
EC50 [7]: > 10 µM
EC50 [8]: > 50 µM

Cc1cn([C@@H]2O[C@H](CO[Si](C)(C)C(C)(C)C)[C@@]3(OS(=O)(=O)C=C3N)[C@H]2O[Si](C)(C)C(C)(C)C)c(=O)n(CC(N)=O)c1=O
EC50 [2]: > 50 µM
SI (CCRF-CEM [3]): 266
CC50 (CCRF-CEM [4]): 13.3 µM
IC50 [5]: > 250 µM
EC50 [6]: 0.05 µM
EC50 [7]: > 10 µM
EC50 [8]: > 10 µM

Cc1cn([C@@H]2O[C@H](CO[Si](C)(C)C(C)(C)C)[C@@]3(OS(=O)(=O)C=C3N)[C@H]2O[Si](C)(C)C(C)(C)C)c(=O)n(CC(=O)O)c1=O
SI (CCRF-CEM [3]): 44
CC50 (CCRF-CEM [4]): 152 µM
IC50 [5]: 15 µM
EC50 [6]: 3.48 µM
EC50 [7]: ≥ 155 µM
EC50 [8]: > 155 µM

Cc1cn([C@@H]2O[C@H](CO[Si](C)(C)C(C)(C)C)[C@@]3(OS(=O)(=O)C=C3N)[C@H]2O[Si](C)(C)C(C)(C)C)c(=O)n(CCCN)c1=O
EC50 [2]: > 10 µM
SI (CCRF-CEM [3]): 83
CC50 (CCRF-CEM [4]): 11.6 µM
IC50 [5]: 8.1 µM
EC50 [6]: 0.14 µM
EC50 [7]: > 10 µM
EC50 [8]: > 10 µM

Cc1cn([C@@H]2O[C@H](CO[Si](C)(C)C(C)(C)C)[C@@]3(OS(=O)(=O)C=C3N)[C@H]2O[Si](C)(C)C(C)(C)C)c(=O)n(CCCO)c1=O
SI (CCRF-CEM [3]): 386
CC50 (CCRF-CEM [4]): 3.86 µM
IC50 [5]: 3 µM
EC50 [6]: 0.01 µM
EC50 [7]: > 2 µM
EC50 [8]: > 2 µM
